The test system of data set [1] is P. aeruginosa strains 762, PA14 and ATCC 27853. Description: Pulmonary P. aeruginosa infection of CF and CerS2 null mice, inhalation treatment (bacteria in lung, sickness score). The format is in vivo, mouse. The following applies: CF and CerS2 null mice; inhalation (125 μM) 1 h before or 1 h after intranasal infection with 1×10^8 CFU. As for the experimental part: (A,B) The number of bacteria in the lungs and the overall sickness score (C,D) of WT, CerS2 null and CF mice 3-4 h after intranasal infection with 1×10^8 CFU of P. aeruginosa strains 762 (A,C) and CF mice with strains PA14 and ATCC 27853. Mice were inhaled with 0.9% NaCl or acid ceramidase 1 h prior (b.i.) to infection, or with sphingosine or FTY720 1 h before (b.i.) or 1 h after (a.i.) infection. Sickness score 4, severely affected (unresponsive animal); score 3 affected, (heavy breathing, low body temperature, ruffled fur) score 2, moderately affected (ruffled fur, heavy breathing); score 1, slightly affected (ruffled fur); score 0, unaffected (healthy appearance). Data are means±s.d., n=4.
Pulmonary infection of CF or CerS2 mice was achieved by intranasal application of P. aeruginosa strains 762, ATCC 27853 or PA14. Mice inhaled acid ceramidase, sphingosine, FTY720 or a combination of sphingosine and ceramide 1 hr before or after pulmonary infection. The number of bacteria in the lung was determined by culturing aliquots of lysed lungs on agar plates. Clinical symptoms of the infection were scored.
Inhalation was performed with a PARI Boy SX nebulizer (PARI GmbH, Starnberg, Germany). This nebulizer generates a fine aerosol mist by pumping the fluid with an air jet. The mice inhaled the aerosol via a mask that is part of an oral inhalation device for children (LL-Nebulizer); the mask was clipped at the sides to cover only the mouse's nose and the surrounding part of the face. […]
P. aeruginosa were grown for 14 to 14.5 h on fresh tryptic soy agar (TSA) plates (Becton Dickinson Biosciences, Germany). […] The bacterial OD was determined, and the bacteria were diluted in prewarmed H/S to a concentration of 1×10^8 CFU per 20 μL. […]
Lungs were removed, homogenised and lysed for 10 min in 5 mg/ml saponin to release intracellular bacteria. […] Bacterial counts (CFU) were counted after 18 h.

In a further data set the test system is P. aeruginosa. Description: Sytox green staining (membrane permeabilization of bacteria). The format is cell-based, Pseudomonas aeruginosa. As to conditions: 50 μM in 1% DMSO, 30 min. The procedure:
FIGS. 4A-D. The ceramide/sphingosine ratio regulates P. aeruginosa growth. (A) Representative image of two independent experiments (left hand panel) after addition of Sytox green (1 μM) for 30 min in the absence or presence of 50 μM sphingosine or 50 μM C16-ceramide (C16-Cer) in 1% DMSO. Fluorescent and thus permeabilised bacteria were quantified (right hand panel). (B-D) The inhibitory effect of sphingosine on the growth of P. aeruginosa strain 762 is decreased in vitro and in vivo by C16-ceramide. (B) Bacteria were incubated with 10 μM sphingosine, and increasing concentrations of C16-ceramide, and growth was determined by counting colony forming unit (CFU) after 24 hrs growth on LB agar plates. Number of bacteria in the lung (C) and sickness score (D) of CF mice or WT mice inhaled with either sphingosine or a combination of sphingosine and C16-ceramide 1 h before (b.i.) with 10^8 P. aeruginosa CFU strain 762. Data are means±s.d., n=3 in (A,B) and n=4 in (C,D).
Bacteria at early logarithmic phase were incubated in the presence or absence of sphingosine or C16-ceramide (C16-cer) (50 μM in 1% DMSO) for 30 minutes at 37° C. […] Sample were examined under fluorescence microscope, and bacteria were counted both in bright field and under green fluorescent filter in two independent experiments.

The next data set concerns P. aeruginosa strain 762. Description: Effect of LCBs on P. aeruginosa growth in vitro (colony counts). Format: cell-based, Pseudomonas aeruginosa. As to conditions: Pseudomonas aeruginosa. As for the experimental part:
P. aeruginosa strain 762 or ATCC 27853 were grown in LB medium at 37° C. until the early logarithmic phase (OD550 0.2). Bacteria were then diluted in PBS to a concentration of 5×10^3 CFU/ml. Stock solutions of sphingolipids (5 mM in 7.5% n-Octyl-β-D-Glucopyranoside (OGP) or in DMSO were prepared by sonication. Sphingolipids were added to the bacteria (0.1-50 μM in 0.075% OGP or 1% DMSO). Bacteria were incubated with sphingolipids for 2 hr at 37° C. and a sample of 200 μl bacteria solution were plated on LB agar plates, incubated overnight at 37° C. and colonies were counted.
The direct effect of sphingosine and other sphingoid long chain bases (LCBs) on the growth of P. aeruginosa was examined in vitro. Bacteria were incubated with a variety of LCBs and the EC50 values on bacterial growth were determined (Table 1).

The conditions of data set [2]: superscript reference marks; cited from earlier work.

By EC50 is commonly meant the midpoint of the concentration-response curve.

“Also recorded” adds a separate entry of the source. Read-outs that look alike come from different tables or passages of the source.

Regarding `CCCCCCCCCCCCC/C=C/[C@@H](O)[C@@H](N)CO` (stereo in doubt) [D-erythro-Sphingosine, (2S,3R)-2-aminooctadec-4-ene-1,3-diol], the “protection from pulmonary P. aeruginosa infection” value in data set [1] was “completely protected CF and CerS2 null mice from P. aeruginosa infection and even eliminated an existing infection; also recorded: rescue CF and CerS2 null mice from pulmonary P. aeruginosa infection; also recorded: prevents pulmonary P. aeruginosa infection”. The “Sytox green fluorescence of bacteria” value with P. aeruginosa is recorded as “large increase in fluorescence”. Moreover, the EC50 in the data set on P. aeruginosa strain 762 (762, Table 3, Example 3, method of Example 2, n=3 for each analog, given as ranges, read-out: EC50) is 0.5 to 1 µM; in the data set with P. aeruginosa strain 762 (P. aeruginosa strain 762, 2 hrs at 37° C. in 0.075% OGP, colonies counted, at least 3 independent experiments, read-out: EC50 (μM) ± S.D.), 0.5 ± 0.1 µM. Further, the “pK (in PBS)” value in data set [2] is listed as 6.7^1,2.

The values above are taken from US20150258043A1, “USE OF SPHINGOID LONG CHAIN BASES AND THEIR ANALOGS IN TREATING AND PREVENTING BACTERIAL INFECTIONS” (YEDA RESEARCH AND DEVELOPMENT CO. LTD., priority 2012, published 2015).
